In patent US20160108008A1, “Substituted N-(Tetrazol-5-yl)- and N-(Triazol-5-yl)arylcarboxamide Compounds and Their Use as Herbicides” (BASF SE, priority 2013, published 2016):
Marks after values point to notes of the source that are not given here.

Tests used:
Type in all cases: in vivo
[1] = system: Echinochloa crus-galli; experiment: greenhouse post-emergence treatment, ECHCG; details: scale 0-100
Source text: (§1) The culture containers used were plastic flowerpots containing loamy sand with approximately 3.0% of humus as the substrate. The seeds of the test plants were sown separately for each species.
(§2) For the post-emergence treatment, the test plants were first grown to a height of 3 to 15 cm, depending on the plant habit, and only then treated with the active ingredients which had been suspended or emulsified in water. For this purpose, the test plants were either sown directly and grown in the same containers, or they were first grown separately as seedlings and transplanted into the test containers a few days prior to treatment.
(§3) Depending on the species, the plants were kept at 10-25° C. or 20-35° C. The test period extended over 2 to 4 weeks. During this time, the plants were tended, and their response to the individual treatments was evaluated.
(§4) Evaluation was carried out using a scale from 0 to 100. 100 means no emergence of the plants, or complete destruction of at least the aerial moieties, and 0 means no damage, or normal course of growth. A good herbicidal activity is given at values of at least 70 and a very good herbicidal activity is given at values of at least 85.
(§5) The plants used in the greenhouse experiments belonged to the following species:
(§6) Following representative compounds of formula I according to Table 9 were used in post-emergence treatments in greenhouse experiments (values labeled with * result from pre-emergence experiments): […]

[2] = system: Amaranthus retroflexus; experiment: greenhouse pre-emergence treatment, AMARE; details: pre-emergence (value labeled *), scale 0-100
Source text: as §1
For the pre-emergence treatment, the active ingredients, which had been suspended or emulsified in water, were applied directly after sowing by means of finely distributing nozzles. The containers were irrigated gently to promote germination and growth and subsequently covered with transparent plastic hoods until the plants had rooted. This cover caused uniform germination of the test plants, unless this has been impaired by the active ingredients.
as §3, §4, §5, §6

[3] = system: Amaranthus retroflexus; experiment: greenhouse post-emergence treatment, AMARE; details: scale 0-100
Source text: as §1, §2, §3, §4, §5, §6

[4] = system: Chenopodium album; experiment: greenhouse post-emergence treatment, CHEAL; details: scale 0-100
Source text: as §1, §2, §3, §4, §5, §6

Compound	[%] damage to weed VII (ECHCG) ([1]; 125 g/ha)	[%] damage to weed III (AMARE) ([2]; 125 g/ha)	[%] damage to weed III (AMARE) ([3]; 125 g/ha)	[%] damage to weed VI (CHEAL) ([4]; 125 g/ha)	[%] damage to weed VII (ECHCG) ([1]; 250 g/ha)	[%] damage to weed III (AMARE) ([2]; 250 g/ha)	[%] damage to weed III (AMARE) ([3]; 250 g/ha)	[%] damage to weed VI (CHEAL) ([4]; 250 g/ha)
CC[S+]([O-])c1c(Cl)cc(F)c(C(=O)Nc2nnnn2CCOC)c1Cl (stereo not drawn) [compound 77]	100%	100* %	100; %	100%	–	–	–	–
CCSc1c(Cl)cc(F)c(C(=O)Nc2nnnn2CCOC)c1Cl [compound 79]	–	–	–	–	100%	100* %	100; %	100%
CSc1ccc(Cl)c(C(=O)Nc2nnnn2C)c1Cl [compound 82]	–	–	–	–	98%	100* %	100; %	100%
COCCn1nnnc1NC(=O)c1c(Cl)ccc(SC)c1Cl [compound 83]	–	–	–	–	100%	100* %	100; %	100%
COCCOc1ccc(Cl)c(C(=O)Nc2ncnn2C)c1Cl [compound 85]	–	–	–	–	85%	–	100%	100%
CCSc1ccc(Cl)c(C(=O)Nc2ncnn2C)c1Cl [compound 87]	–	–	–	–	98%	98* %	100; %	100%
CCSc1ccc(Cl)c(C(=O)Nc2nnnn2C)c1Cl [compound 88]	–	–	–	–	100%	–	–	100%
COCCn1nnnc1NC(=O)c1c(F)cc(Cl)c(OCCC(F)(F)F)c1Cl [compound 89, 2,4-Dichloro-6-fluoro-N-[1-(2-methoxyethyl)tetrazol-5-yl]-3-(3,3,3-trifluoropropoxy)-benzamide]	–	–	–	–	100%	100* %	100; %	100%
Cn1ncnc1NC(=O)c1c(F)cc(Cl)c(OCCC(F)(F)F)c1Cl [compound 90, 2,4-Dichloro-6-fluoro-N-(2-methyl-1,2,4-triazol-3-yl)-3-(3,3,3-trifluoropropoxy)benzamide]	–	–	–	–	90%	–	–	100%
Cn1nnnc1NC(=O)c1c(F)cc(Cl)c(OCCC(F)(F)F)c1Cl [compound 91, 2,4-Dichloro-6-fluoro-N-(1-methyltetrazol-5-yl)-3-(3,3,3-trifluoropropoxy)benzamide]	–	–	–	–	100%	100* %	100; %	100%
CCn1nnnc1NC(=O)c1c(F)cc(Cl)c(OCCC(F)(F)F)c1Cl [compound 92, 2,4-Dichloro-N-(1-ethyltetrazol-5-yl)-6-fluoro-3-(3,3,3-trifluoropropoxy)benzamide]	–	–	–	–	100%	100* %	100; %	100%
CSc1c(F)cc(Cl)c(C(=O)Nc2nnnn2C)c1F [compound 95]	–	–	–	–	100%	95* %	100; %	100%
CCSc1c(F)cc(Cl)c(C(=O)Nc2nnnn2C)c1F [compound 97]	–	–	–	–	100%	100* %	100; %	100%
COCCn1nnnc1NC(=O)c1c(Cl)cc(F)c(SC)c1F [compound 99]	–	–	–	–	100%	100* %	100; %	100%
Cn1ncnc1NC(=O)c1c(F)cc(Cl)c([S+](C)[O-])c1Cl (stereo not drawn) [cpd. 5]	–	–	–	–	98%	–	100%	100%
